Results published in ChEMBL document CHEMBL1201862, “PubChem BioAssay data set” (2004).
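Interpolation was linear, between the two tested concentrations surrounding the appropriate level; five concentrations were tested over 48 hours in 96-well plates. GI50 marks 50% less growth.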 Calls of active or inactive are those of the source. Rule as the data show it: active = GI50 up to about 1.1 µM and inactive = higher.

How the values were obtained:
Test in all cases: NCI-60 cell line screen, 48 h
A498 = system: A498
A549 = system: A549
HCT-116 = system: HCT-116
HT-29 = system: HT-29
Hs-578T = system: Hs-578T
MCF7 = system: MCF7
MDA-MB-231 = system: MDA-MB-231
NCI-H23 = system: NCI-H23
SK-MEL-28 = system: SK-MEL-28
SK-OV-3 = system: SK-OV-3
SN12C = system: SN12C
SNB-19 = system: SNB-19
U-251 = system: U-251
UACC-257 = system: UACC-257
CAKI-1 = system: CAKI-1
HCT-15 = system: HCT-15
NCI-H460 = system: NCI-H460
SR = system: SR
TK-10 = system: TK-10

Row | Compound | GI50 (A498) | GI50 (A549) | GI50 (HCT-116) | GI50 (HT-29) | GI50 (Hs-578T) | GI50 (MCF7) | GI50 (MDA-MB-231) | GI50 (NCI-H23) | GI50 (SK-MEL-28) | GI50 (SK-OV-3) | GI50 (SN12C) | GI50 (SNB-19) | GI50 (U-251) | GI50 (UACC-257) | GI50 (CAKI-1) | GI50 (HCT-15) [µM] | GI50 (NCI-H460) | GI50 (SR) | GI50 (TK-10)
1 | CC(=O)C1=C(C)N2C(=NC3=C(CCc4ccccc43)C2c2ccc(F)cc2)S1 (stereo unspecified) | 45.7 µM (inactive) | > 100 µM (inactive) | > 100 µM (inactive) | 84.1 µM (inactive) | 42.8 µM (inactive) | 60.5 µM (inactive) | 22.3 µM (inactive) | > 100 µM (inactive) | > 100 µM (inactive) | > 100 µM (inactive) | 51.3 µM (inactive) | > 100 µM (inactive) | 84.7 µM (inactive) | 79.4 µM (inactive) | – | – | – | – | –
2 | CC(C)(C)c1ccc(O)c(C(O)c2ccccn2)c1 (stereo unspecified) | – | 98.2 µM (inactive) | 61.4 µM (inactive) | > 100 µM (inactive) | 91.2 µM (inactive) | 77.8 µM (inactive) | > 100 µM (inactive) | 56.1 µM (inactive) | > 100 µM (inactive) | – | 74 µM (inactive) | > 100 µM (inactive) | 46.1 µM (inactive) | – | > 100 µM (inactive) | 35.4 | 48.5 µM (inactive) | 70.1 µM (inactive) | > 100 µM (inactive)
3 | C/C=C1/CN2CCC34C(=C(C(=O)OC)C1CC23)Nc1ccc(O)cc14 (stereo unspecified) | > 100 µM (inactive) | > 100 µM (inactive) | > 100 µM (inactive) | > 100 µM (inactive) | 34.3 µM (inactive) | > 100 µM (inactive) | > 100 µM (inactive) | > 100 µM (inactive) | > 100 µM (inactive) | > 100 µM (inactive) | > 100 µM (inactive) | > 100 µM (inactive) | > 100 µM (inactive) | > 100 µM (inactive) | > 100 µM (inactive) | > 100 | > 100 µM (inactive) | – | > 100 µM (inactive)
4 | COc1ccc2c(c1O)[C@@]13CCCC=C1[C@@H](C2)N(C)CC3 | – | > 100 µM (inactive) | 36.6 µM (inactive) | 32.1 µM (inactive) | 42.5 µM (inactive) | 81.5 µM (inactive) | 77.6 µM (inactive) | 89.1 µM (inactive) | > 100 µM (inactive) | > 100 µM (inactive) | > 100 µM (inactive) | > 100 µM (inactive) | > 100 µM (inactive) | > 100 µM (inactive) | > 100 µM (inactive) | > 100 | > 100 µM (inactive) | 25.6 µM (inactive) | > 100 µM (inactive)
5 | COc1ccc(C(OCC2OC(n3ccc(NC(=O)c4ccccc4)nc3=O)CC2OP2(=S)SCCS2)(c2ccccc2)c2ccc(OC)cc2)cc1 (stereo unspecified) | – | 56.2 µM (inactive) | 32.9 µM (inactive) | 24.7 µM (inactive) | 24.1 µM (inactive) | 37.1 µM (inactive) | 31.1 µM (inactive) | 43.2 µM (inactive) | 30 µM (inactive) | 25.2 µM (inactive) | 21.1 µM (inactive) | 29.6 µM (inactive) | 28 µM (inactive) | 30.1 µM (inactive) | – | 33.5 | 33.6 µM (inactive) | 48.1 µM (inactive) | > 100 µM (inactive)
6 | O=S1(=O)c2ccccc2N(c2ccccc2)c2nnnn21 | 23.6 µM (inactive) | 33.4 µM (inactive) | 26.4 µM (inactive) | 20.6 µM (inactive) | 56.6 µM (inactive) | 36.6 µM (inactive) | 25.6 µM (inactive) | 28.5 µM (inactive) | 22.4 µM (inactive) | 42.3 µM (inactive) | 19.1 µM (inactive) | 23.3 µM (inactive) | 32.7 µM (inactive) | 42.3 µM (inactive) | 17.6 µM (inactive) | 12.6 | 31.3 µM (inactive) | – | 38.5 µM (inactive)
